Residues, ends and D or L forms follow the SMILES beside them.
Tests used:
[1] = molecular target: T1, Tyrosine-protein phosphatase non-receptor type 1 (Homo sapiens) (UniProt P18031); assay: Inhibition of recombinant human N-terminal poly histidine-tagged PTP1B (Glu2 to Asn321 residues) expressed in Escherichia coli at 40 umol/L using pNPP as substrate measured for 4 mins relative to control
T1 sequence (whole entry): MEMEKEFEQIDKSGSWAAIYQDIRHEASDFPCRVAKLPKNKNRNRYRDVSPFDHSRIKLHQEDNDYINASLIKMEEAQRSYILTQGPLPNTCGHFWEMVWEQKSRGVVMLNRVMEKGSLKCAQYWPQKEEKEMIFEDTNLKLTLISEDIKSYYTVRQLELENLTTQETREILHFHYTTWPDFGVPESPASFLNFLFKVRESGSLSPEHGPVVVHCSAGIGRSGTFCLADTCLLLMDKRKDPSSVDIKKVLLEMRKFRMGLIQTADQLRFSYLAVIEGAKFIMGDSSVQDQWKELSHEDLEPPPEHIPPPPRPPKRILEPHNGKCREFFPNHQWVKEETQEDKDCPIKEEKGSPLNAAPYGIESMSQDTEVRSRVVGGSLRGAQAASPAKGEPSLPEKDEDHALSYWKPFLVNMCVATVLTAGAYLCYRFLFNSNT

[2] = molecular target: T1, Tyrosine-protein phosphatase non-receptor type 1 (Homo sapiens); assay: Binding affinity to recombinant human N-terminal poly histidine-tagged PTP1B (Glu2 to Asn321 residues) expressed in Escherichia coli assessed as association rate constant by surface plasmon resonance analysis
[3] = molecular target: T1, Tyrosine-protein phosphatase non-receptor type 1 (Homo sapiens); assay: Binding affinity to recombinant human N-terminal poly histidine-tagged PTP1B (Glu2 to Asn321 residues) expressed in Escherichia coli assessed as dissociation rate constant by surface plasmon resonance analysis
[4] = molecular target: T2, Tyrosine-protein phosphatase non-receptor type 1 (Homo sapiens, UniProt P18031); assay: Binding affinity to recombinant human N-terminal poly histidine-tagged PTP1B (Glu2 to Asn321 residues) expressed in Escherichia coli by surface plasmon resonance analysis
T2 sequence (P18031 whole entry): T1 sequence (whole entry)

Compound	inhibition [1] [%]	Ka [2] [M⁻¹ s⁻¹]	Kdiss [3] [×10⁻³ /s]	Kd [4] [nM]
Ac-IAQELRRIGDEFNA-NH2	3.31			
Ac-IWIAQELRRIGDEF-NH2	5	9880	1.26	128
CC[C@H](C)[C@H](NC(=O)COCCOCCOCCOCCOC)C(=O)N[C@@H](C)C(=O)N[C@@H](CCC(N)=O)C(=O)N[C@@H](CCC(=O)O)C(=O)N[C@@H](CC(C)C)C(=O)N[C@@H](CCCNC(=N)N)C(=O)N[C@@H](CCCNC(=N)N)C(=O)N[C@H](C(=O)NCC(=O)N[C@@H](CC(=O)O)C(=O)N[C@@H](CCC(=O)O)C(=O)N[C@@H](Cc1ccccc1)C(N)=O)[C@@H](C)CC (HELM PEPTIDE1{[COCCOCCOCCOCCOCC(=O)[*:2]].I.A.Q.E.L.R.R.I.G.D.E.F.[am]}$$$$V2.0)	4.25			
